From ChEMBL document CHEMBL1147497, “The inhibition of metallo-beta-lactamase by thioxo-cephalosporin derivatives” (Bioorg Med Chem Lett, 2004)

How the values were obtained:
[1] = Binding affinity against nitrocefin
[2] = pKa in water at 30 degree C; assay type: physicochemical

Row | Ki [1] [µM] | pKa [2] | SMILES
1 | 720 |  | CC1=C(C(=O)O)N2C(=S)[C@@H](NC(=O)Cc3ccccc3)[C@H]2SC1
2 |  | 10.1 | CC1=C(C(=O)O)N[C@@H](C2NC(=O)C(c3ccccc3)N=C2S)SC1 (some centres not stated)
